Experiments:
[1] = Cytotoxicity against Vero cells; format: cell-based; details: chlorocebus sabaeus
[2] = test system: Human alphaherpesvirus 1; test: Antiviral activity against HSV1 SC16 in Vero cells by capture hybrid method; format: functional, organism-based; details: Human alphaherpesvirus 1, SC16, Vero

Structure (SMILES) | CC50 [1] | IC50 [2]
COc1cccc(-c2nc3c(Cl)cccn3c2-c2ccnc(NC3CCCC3)n2)c1 | > 40000 nM | 1730 nM
Fc1ccc(-c2nc3c(Br)cc(Br)cn3c2-c2ccnc(NC3CCCC3)n2)cc1 | > 40000 nM | 800 nM
Cc1cc(NC2CCCC2)cn2c(-c3ccnc(NC4CCCC4)n3)c(-c3ccc(F)cc3)nc12 | > 40000 nM | 150 nM
N#Cc1cccc(-c2nc3c(NC4CCCC4)cccn3c2-c2ccnc(NC3CCCC3)n2)c1 | > 40000 nM | 360 nM
Fc1ccc(-c2nc3c(Cl)cc(Cl)cn3c2-c2ccnc(NC3CCCC3)n2)cc1 | > 40000 nM | 1110 nM
Fc1ccc(-c2nc3c(NC4CCCC4)cccn3c2-c2ccnc(NC3CCCC3)c2)cc1 | > 40000 nM | 
CNc1nccc(-c2c(-c3ccc(F)cc3)nc3c(Cl)cccn23)n1 | > 40000 nM | 9300 nM
Oc1ccc(-c2nc3c(NC4CCCC4)cccn3c2-c2ccnc(NC3CCCC3)n2)cc1 | > 40000 nM | 3400 nM
c1cc(NC2CCCC2)c2nc(-c3ccc(OCC4CC4)cc3)c(-c3ccnc(NC4CCCC4)n3)n2c1 | > 40000 nM | 270 nM
Cc1cc(Br)cn2c(-c3ccnc(NC4CCCC4)n3)c(-c3ccc(F)cc3)nc12 | > 40000 nM | 1160 nM
C=CCOc1ccc(-c2nc3c(NC4CCCC4)cccn3c2-c2ccnc(NC3CCCC3)n2)cc1 | > 40000 nM | 570 nM
Nc1nc2c(ncn2COCCO)c(=O)[nH]1 [ACYCLOVIR] | > 200000 nM | 
Cc1cccn2c(-c3ccnc(NC4CCCC4)n3)c(-c3ccc(F)cc3)nc12 | > 40000 nM | 1530 nM
COc1cccc(-c2nc3c(NC4CCCC4)cccn3c2-c2ccnc(NC3CCCC3)n2)c1 | > 40000 nM | 710 nM
CNc1nccc(-c2c(-c3ccc(F)cc3)nc3c(NC4CCCC4)cccn23)n1 | > 40000 nM | > 5000 nM
Fc1ccc(-c2nn3c(NC4CCCC4)cccc3c2-c2ccnc(NC3CCCC3)n2)cc1 | > 160000 nM | 
Oc1cccc(-c2nc3c(NC4CCCC4)cccn3c2-c2ccnc(NC3CCCC3)n2)c1 | > 40000 nM | 3130 nM

Structure (SMILES) | CC50 [1] | IC50 [2]
Cc1cc(NC2CC2)cn2c(-c3ccnc(NC4CCCC4)n3)c(-c3ccc(F)cc3)nc12 | > 40000 nM | 120 nM
Fc1ccc(-c2nc3c(NC4CCCC4)cc(Cl)cn3c2-c2ccnc(NC3CCCC3)n2)cc1 | > 40000 nM | 370 nM
Fc1ccc(-c2nc3c(NC4CCCC4)cc(Br)cn3c2-c2ccnc(NC3CCCC3)n2)cc1 | > 40000 nM | 220 nM
CCCCNc1cccn2c(-c3ccnc(NC4CCCC4)n3)c(-c3ccc(F)cc3)nc12 | 32000 nM | 800 nM
COc1ccc(-c2nc3c(NC4CCCC4)cccn3c2-c2ccnc(NC3CCCC3)n2)cc1 | > 10000 nM | 480 nM
Fc1ccc(-c2nc3ccccn3c2-c2ccnc(NC3CCCC3)n2)cc1 | > 40000 nM | 3300 nM
Fc1ccc(-c2nc3ccc(NC4CCCC4)cn3c2-c2ccnc(NC3CCCC3)n2)cc1 | > 40000 nM | 330 nM
Fc1ccc(-c2nc3c(N4CCCC4)cccn3c2-c2ccnc(NC3CCCC3)n2)cc1 | > 40000 nM | 1880 nM
Fc1ccc(-c2nc3c(NC4CCCC4)cccn3c2-c2ccnc(NC3CCCC3)n2)cc1 | > 40000 nM | 590 nM
COCCNc1cccn2c(-c3ccnc(NC4CCCC4)n3)c(-c3ccc(F)cc3)nc12 | > 40000 nM | 260 nM
Cc1ccc(-c2nc3c(NC4CCCC4)cccn3c2-c2ccnc(NC3CCCC3)n2)cc1 | > 40000 nM | 1610 nM
Fc1ccc(-c2nc3ccc(Br)cn3c2-c2ccnc(NC3CCCC3)n2)cc1 | > 40000 nM | 4080 nM
N#Cc1ccc(-c2nc3c(NC4CCCC4)cccn3c2-c2ccnc(NC3CCCC3)n2)cc1 | > 40000 nM | 320 nM
Fc1ccc(-c2nc3c(NC4CC4)cccn3c2-c2ccnc(NC3CCCC3)n2)cc1 | 33000 nM | 510 nM
C=CCOc1cccc(-c2nc3c(NC4CCCC4)cccn3c2-c2ccnc(NC3CCCC3)n2)c1 | > 40000 nM | 300 nM
CCCCNc1cc(Br)cn2c(-c3ccnc(NC4CCCC4)n3)c(-c3ccc(F)cc3)nc12 | > 40000 nM | 300 nM
COc1ccc(-c2nc3c(Cl)cccn3c2-c2ccnc(NC3CCCC3)n2)cc1 | 30100 nM | 1430 nM
